From patent US6420427B1, “Aminobutyric acid derivatives” (Ono Pharmaceutical Co., Ltd., priority 1997, dated 2002) come the findings set out here.

Format in all cases: biochemical
One experiment has as its target T1, gelatinase A (Homo sapiens, UniProt P08253).
T1 construct: endogenous in cells; host or cells: human normal skin dermal fibroblasts (HNDF)
T1 sequence (P08253 110-660): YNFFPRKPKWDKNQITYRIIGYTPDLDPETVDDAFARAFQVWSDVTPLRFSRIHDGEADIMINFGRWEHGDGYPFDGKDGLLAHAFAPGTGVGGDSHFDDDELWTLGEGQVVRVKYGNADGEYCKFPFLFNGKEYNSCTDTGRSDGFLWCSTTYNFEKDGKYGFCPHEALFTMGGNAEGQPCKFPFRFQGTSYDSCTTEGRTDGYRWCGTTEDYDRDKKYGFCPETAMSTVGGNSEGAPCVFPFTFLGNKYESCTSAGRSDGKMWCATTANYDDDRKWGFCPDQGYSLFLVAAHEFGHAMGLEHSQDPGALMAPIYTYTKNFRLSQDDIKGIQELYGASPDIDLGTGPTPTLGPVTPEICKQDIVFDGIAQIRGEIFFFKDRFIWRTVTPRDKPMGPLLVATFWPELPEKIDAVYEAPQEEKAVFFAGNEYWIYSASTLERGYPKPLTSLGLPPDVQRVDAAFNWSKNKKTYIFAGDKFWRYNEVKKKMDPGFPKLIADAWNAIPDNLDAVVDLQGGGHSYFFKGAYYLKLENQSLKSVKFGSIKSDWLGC
Kind of experiment: Inhibitory activity against gelatinase A. As to conditions: progelatinase A from human normal skin dermal fibroblasts (HNDF), APMA-activated; fluorogenic substrate MOCAc-Pro-Leu-Gly-A2pr(Dnp)-Ala-Arg-NH2 13.5 μM, 37° C. The procedure:
(1) Inhibitory Activity Against Gelatinase A
The progelatinase A (5 μl; in assay buffer (40 μl)) was purified from human normal skin dermal fibroblasts (HNDF). It was activated by the addition of 10 mM of p-aminophenylmercuric acetate (APMA) ([…]) for 1 hour at 37° C.
A mixture of the synthetic substrate (MOCAc-Pro-Leu-Gly-A2pr(Dnp)-Ala-Arg-NH2) (130 μl; a final concentration 13.5 μM) and a solution (20 μl) with or without various concentrations of the test compound was preincubated for 5 minutes at 37° C.
The solution of activated gelatinase A (50 μl/well) was mixed with the mixture and the mixture was incubated for 15 minutes at 37° C. The enzyme reaction was started. The enzyme activity was represented by increasing value of fluorescent intensity [Ex=325 nm (Ex)/393 nm (Em)] per 1 minute. Inhibitory activity was represented by inhibitory percentage (%) per enzyme activity without the test compound. For example, IC50 of the compound as Example 71 is 0.50 nM.

In the next experiment the target is T2, human stromelysin (Homo sapiens, UniProt P08254).
T2 construct: purchased Yagai
Description: Inhibitory activity against stromelysin. Particulars: APMA-activated, substrate NFF-3, pH 7.5, 37° C. The procedure:
(3) Inhibitory Activity Against Stromelysin ps [Method]
The mixture of human stromelysin (Yagai; 9 volume) and 10 mM p-aminophenylmercury acetate (1 volume) was activated for 20 hours at 37° C. A solution of the test compound in dimethylsulfoxide (10 μl) and 0.5 mM solution (10 μl) of 10 mM solution of the synthetic substrate NFF-3 (Mca-Arg-Pro-Lys-Pro-Val-Glu-Nva-Trp-Arg-Lys(DNP)-NH2., Nva: norvaline, Peptide Laboratory) in dimethylsulfoxide diluted by water were added to assay buffer (50 mM tris-HCl, 10 mM CaCl2, 0.05% Brij35, 0.02% NaN3 (pH 7.5)) (150 μl). Furthermore, assay buffer (30 μl) was added to the mixture. The mixture was incubated for 10 minutes at 37° C. The reaction was started by addition of a solution of the above activated stromelysin solution (50 μl). The enzyme activity was represented by increasing value of fluorescent intensity [Ex=325 nm (Ex)/393 nm (Em)] per 1 minute. Inhibitory activity was represented by inhibitory percentage (%) per enzyme activity without the test compound.

The target in another experiment is T3, collagenase (Homo sapiens, UniProt P03956).
T3 construct: endogenous in cells; host or cells: human normal skin dermal fibroblasts (HNDF)
T3 sequence (P03956 100-469): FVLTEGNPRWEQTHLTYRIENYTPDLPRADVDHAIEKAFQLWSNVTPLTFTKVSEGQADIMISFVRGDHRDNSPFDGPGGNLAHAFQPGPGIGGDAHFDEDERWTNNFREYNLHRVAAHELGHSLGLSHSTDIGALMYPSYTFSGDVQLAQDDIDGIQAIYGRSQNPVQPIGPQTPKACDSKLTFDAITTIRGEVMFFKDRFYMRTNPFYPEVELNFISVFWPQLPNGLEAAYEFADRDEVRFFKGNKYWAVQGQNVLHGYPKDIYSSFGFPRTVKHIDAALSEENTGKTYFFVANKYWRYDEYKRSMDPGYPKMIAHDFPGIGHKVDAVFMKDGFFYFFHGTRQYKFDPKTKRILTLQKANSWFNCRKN
Description: Inhibitory activity against collagenase. Particulars: procollagenase from HNDF, trypsin-activated; thioester substrate 1.33 mM, 26° C., absorption at 324 nm. The procedure: (2) Inhibitory Activity Against Collagenase
The procollagenase (5 μl; in assay buffer (105 μl)) was purified from human normal skin dermal fibroblasts (HNDF). It was activated by the addition of 1 mg/ml Trypsin (45 μl) for 1 minute at 37° C. Trypsin was inactivated by addition of 5 mg/ml soybean trypsin inhibitor (SBTI; 50 μl).
A mixture of the synthetic substrate (Ac-Pro-Leu-Gly-[2-mercapto-4-methyl-pentanoyl]-Leu-Gly-OEt) (105 μl; a final concentration 1.33 mM) and a solution (20 μl) with or without various concentrations of the test compound was preincubated for 5 minutes at 26° C.
The solution of activated enzyme (75 μl/tube, 50 μl) was mixed with the mixture and the mixture was incubated for 10 minutes at 26° C.
Absorption at 324 nm was measured at 40 points over 10 minutes. Vmax value was determined as measured value in 30 points therein.

T2 sequence (P08254 100-477): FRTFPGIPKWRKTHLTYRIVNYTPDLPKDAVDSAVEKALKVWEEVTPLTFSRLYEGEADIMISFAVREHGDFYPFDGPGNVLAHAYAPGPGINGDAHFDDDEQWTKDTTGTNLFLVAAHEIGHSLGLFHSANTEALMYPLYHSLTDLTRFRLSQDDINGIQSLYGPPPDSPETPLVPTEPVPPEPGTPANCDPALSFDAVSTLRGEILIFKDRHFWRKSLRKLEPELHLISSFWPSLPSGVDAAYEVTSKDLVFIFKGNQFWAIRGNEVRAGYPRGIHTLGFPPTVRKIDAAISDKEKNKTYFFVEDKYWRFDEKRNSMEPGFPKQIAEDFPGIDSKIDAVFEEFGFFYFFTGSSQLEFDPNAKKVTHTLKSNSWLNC

With `CCOCOC[C@H](C[C@H](C)C(=O)NO)NC(=O)c1ccc(Oc2ccccc2)cc1` [Example 71, N-Hydroxy-2(S)-methyl-5-ethoxymethoxy-4(S)-[N-(4-phenoxyphenylcarbonyl)-amino]pentanamide], the concentration for half-maximal inhibition (IC50) (as a rule, the concentration needed to halve the response being measured) against gelatinase A turned out to be 0.5 nM; against human stromelysin, 26 nM; against collagenase it was 2500 nM.
